Measurements taken from PMC9127867, “Analysis of the β-Glucosidase Family Reveals Genes Involved in the Lignification of Stone Cells in Chinese White Pear (Pyrus bretschneideri Rehd.)” (Frontiers in Plant Science, 2022).

Molecular target: T1, GST-PbBGLU1 (Pyrus x bretschneideri, UniProt Z9UO32JHD5)
T1 construct: full-length CDS in pGEX4T-1, N-terminal GST tag kept, E. coli BL21(DE3)
T1 sequence (Z9UO32JHD5 522-1019 limits assumed): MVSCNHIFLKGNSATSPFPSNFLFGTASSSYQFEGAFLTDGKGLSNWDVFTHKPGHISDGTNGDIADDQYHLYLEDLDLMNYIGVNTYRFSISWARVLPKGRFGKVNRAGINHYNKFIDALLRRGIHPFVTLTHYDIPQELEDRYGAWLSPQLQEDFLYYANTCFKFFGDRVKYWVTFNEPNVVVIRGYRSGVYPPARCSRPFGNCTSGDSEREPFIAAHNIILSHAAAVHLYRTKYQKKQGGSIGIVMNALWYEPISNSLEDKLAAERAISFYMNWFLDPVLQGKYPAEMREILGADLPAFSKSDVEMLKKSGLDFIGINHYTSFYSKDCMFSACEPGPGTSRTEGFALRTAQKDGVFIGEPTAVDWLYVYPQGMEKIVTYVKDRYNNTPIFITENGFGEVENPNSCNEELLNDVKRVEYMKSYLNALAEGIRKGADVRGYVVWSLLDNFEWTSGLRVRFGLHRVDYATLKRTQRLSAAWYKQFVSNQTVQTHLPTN
Assay: HPLC of product, double reciprocal plot
Type: biochemical
Settings: 35 °C, PBS pH 7.2–7.4, 50 mM MgSO4, 200 mM KCl, 0.1% β-mercaptoethanol
Excerpt: HPLC of product, double reciprocal plot on GST-PbBGLU1

Structure (SMILES)	Km [µM]
COc1cc(/C=C/CO)ccc1O[C@@H]1O[C@H](CO)[C@@H](O)[C@H](O)[C@H]1O [coniferin]	103 ± 3.89
COc1cc(/C=C/CO)cc(OC)c1O[C@@H]1O[C@H](CO)[C@@H](O)[C@H](O)[C@H]1O [syringin]	101 ± 6.51
